Measurements from patent US20240262811A1, “BENZIMIDAZOYL GLP-1 RECEPTOR AGONISTS, PHARMACEUTICAL COMPOSITIONS COMPRISING THE SAME, AND METHODS FOR THEIR USE” (Carmot Therapeutics, Inc., priority 2021, published 2024).

Molecular target: T1, human GLP-1 receptor (Homo sapiens, UniProt P43220)
T1 construct: expressed in transfected cells
Test: GLP-1R cAMP Assay (HitHunter cAMP accumulation in CHO cells stably overexpressing the human GLP-1 receptor)
Assay type: cell-based
Details: CHO cells overexpressing human GLP-1 receptor, 30 min treatment, 20-point dose response in triplicate
Protocol: cAMP accumulation was measured in Chinese hamster ovary (CHO) cells stably overexpressing the human GLP-1 receptor using the HitHunter cAMP Assay for Small Molecules Kit (Eurofins). Briefly, cells were grown in Ham's F12 Nutrient Mix with 10% FBS, and lifted with Cell Dissociation Buffer, Enzyme free, PBS based (ThermoFisher). Cells were pelleted, and resuspended in Hank's buffered saline solution with 10 mM HEPES, and 625 μM 3-isobutyl-1-methylxanthine. The anti-cAMP antibody reagent was then added to cells at a 1:2 ratio and 5 μL of mixture was seeded in 384-well small volume white assay plates, at 10,000 cells/well. Cells were then treated with 50 nL compound using an ECHO 550 acoustic dispenser (Labcyte) in a 20-point dose response format in triplicate for 30 min. Cells were then lysed, and detection reagents added according to the manufacturer's protocol. After overnight incubation, luminescence was measured using a Perkin Elmer Envision plate reader. Dose response curves were analyzed using GraphPad Prism 9.0.
Molecular weights are calculated by standard techniques, and mass spectrometry results are reported according to the Examples above.

T1 sequence (P43220 24-463): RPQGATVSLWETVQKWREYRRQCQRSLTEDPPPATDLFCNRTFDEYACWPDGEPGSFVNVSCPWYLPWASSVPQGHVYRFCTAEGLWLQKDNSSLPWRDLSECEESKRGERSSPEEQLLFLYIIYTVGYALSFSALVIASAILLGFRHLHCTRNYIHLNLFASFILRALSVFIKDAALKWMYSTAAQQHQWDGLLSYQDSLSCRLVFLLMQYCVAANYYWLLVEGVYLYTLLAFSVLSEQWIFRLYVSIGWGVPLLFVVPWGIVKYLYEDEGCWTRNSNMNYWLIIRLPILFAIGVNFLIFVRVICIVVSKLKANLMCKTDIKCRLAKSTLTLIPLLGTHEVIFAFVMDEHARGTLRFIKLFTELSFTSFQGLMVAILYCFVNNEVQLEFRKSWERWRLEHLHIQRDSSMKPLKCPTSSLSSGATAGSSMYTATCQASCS

EC50: < 50 nM
Compound: O=C(O)c1ccc2nc(CN3CC[C@H](Oc4ccnc(COc5ccc(Cl)cc5F)c4)C3)n(C[C@@H]3CCO3)c2c1 [Compound 289, 2-{[(3S)-3-({2-[(4-chloro-2-fluorophenoxy)methyl]pyridin-4-yl}oxy)pyrrolidin-1-yl]methyl}-1-{[(2S)-oxetan-2-yl]methyl}-1H-1,3-benzodiazole-6-carboxylic acid]
